Experimental data reported in EP4596537A1, “NOVEL FLUORENE DERIVATIVE COMPOUND AND USE THEREOF” (JD Bioscience Inc., priority 2022, dated 2024).

How the values were obtained:
H9C2 cells = experiment: Myocardial infarction cell model (hypoxia-reoxygenation); type: cell-based, rat; settings: 1 µM
Description: H9C2 cells, which are a rat […] cell line, were seeded at a density of 3 × 10^3 cells/well in a 96-well plate and cultured for 24 hours. The next day, the medium was replaced with FBS-free DMEM and cultured for an additional 24 hours. After replacing the medium with FBS-free DMEM again, 1 µM of Compound 1 was treated and cultured in a hypoxia chamber (1% oxygen, 5% CO2) for 2 hours (hypoxia). After replacing the medium with DMEM with 10% FBS, 1 µM of Compound 1 was treated and cultured in a CO2 incubator for 1 hour (reoxygenation). Apoptosis, mitochondrial superoxide levels, and intracellular calcium levels were measured, and the results are shown in FIGS. 4 and 5, respectively.

C57BL6J JmcSlc mice = experiment: Inflammatory bowel disease animal model (DSS-induced colitis); type: in vivo
Description: Colitis was induced in 8-week-old male C57BL6J JmcSlc mice by feeding 3.5% dextran sodium sulfate (DSS) ad libitum for 9 days, and then replacing the same with normal drinking water. The vehicle and Compound 1 (0.5 mg/kg or 1 mg/kg) were orally administered to the experimental animal model prepared as described above daily from 2 days before DSS drinking until the end of drinking. In order to determine the degree of colonic inflammation, the degree of longitudinal contraction of the isolated colon was measured, and the histological scores were confirmed through H&E staining, which is shown in FIG. 6. Furthermore, total RNA was isolated from the isolated colon, cDNA was synthesized, and the expression levels of representative cytokines (IFNγ, IL-1β, IL-4, IL-6, IL-10, IL-12β, IL-17a, and TNFα) were measured and compared using qPCR, and the results are shown in FIG. 7.

mice = experiment: Acute pancreatitis animal model (cerulein-induced); type: in vivo; settings: 5 µg/kg or 10 µg/kg tail vein; dose-dependent
Description: Acute pancreatitis was induced by intraperitoneal administration of cerulein (50 µg/kg) dissolved in saline to 8-week-old male mice. Compound 1 was administered at a concentration of 5 µg/kg or 10 µg/kg into the tail vein 24 hours and 1 hour before cerulein administration, and cerulein was intraperitoneally administered six times at 1-hour intervals. 18 hours after the first cerulein administration, the mice were anesthetized, the serum was separated, and the amylase and lipase activities in the serum were measured, which are shown in FIG. 8.

[1] = system: bone marrow-derived dendritic cells (BMDCs); experiment: Inflammasome formation (IL-1β ELISA) in LPS/ATP-treated dendritic cells; type: cell-based, C57BL6 mice; settings: for IL-1β: LPS 500 ng/mL + 5 mM ATP, supernatant; for inhibited IL-1β expression: compared to vehicle control group
Description: Furthermore, to verify the anti-inflammatory effect at a cellular level, bone marrow cells of C57BL6 mice were treated with 20 ng/mL of GM-CSF and IL-4, and 6 days later, bone marrow-derived dendritic cells (BMDCs) were collected. The BMDCs were prepared at 1×10^6 cells/mL and stabilized for one day, and then subsequent experiments were conducted. The above dendritic cells were treated with 500 ng/mL of LPS for 3 hours to prime pro-IL1 β, and then treated with Compound 1 (0 µM, 0.01 µM, 0.1 µM, 1 µM, and 10 µM) for 15 minutes. Next, 5 mM of ATP was treated, which induces inflammasome formation by converting pro-IL1β to IL-1β through pro-IL1β cleavage, and 30 minutes later, the concentration of IL-1β in the supernatant was measured by ELISA, and the results are shown in FIG. 10 and Table 3.

BALB/c male mice = experiment: Graft-versus-host disease (GvHD) animal model; type: in vivo; design: change in body weight: unit not given here; settings: for body weight of the GvHD in vivo model: compared to control group
Description: 5-week-old BALB/c male mice were acclimatized for 1 week and irradiated with 800 cGy of total body irradiation. Then, 5 × 10^6 bone marrow cells derived from C57BL/6J and 1 × 10^7 spleen cells were intravenously injected to establish a GvHD in vivo model (positive control). A syngeneic control group was established in the same manner as above, but BALB/c-derived bone marrow cells were selected as the injected bone marrow cells. Compound 1 Daily was established by daily oral gavage of1 mg/kg of Compound 1 to the GvHD in vivo model. Compound 1 Initial only was established by orally administering 1 mg/kg of Compound 1 to the GvHD in vivo model only for 6 days after model induction. The therapeutic effect of Compound 1 was verified by measuring the change in body weight every 3 days for each control and experimental group established as above, and the results are shown in FIG. 11 and Table 4. On day 14, the production of CD4^+IFNg^+ T cells, which is a major factor inducing GvHD, was measured in the spleens isolated from the mice, and the results are shown in FIG. 12 and Table 5.

PDHE1α S293 = experiment: In vitro PDH S293 phosphorylation inhibition (Western blot) in HEK293 cells; type: cell-based, human; settings: Homo sapiens, 5 hours
Description: HEK293 cells, which are human embryonic kidney cells, were seeded at a density of 2 × 10^6 in a 60 mm dish, and cultured for 24 hours. After replacing the medium with a medium comprising 0.5% FBS, the compounds prepared according to Examples 1 to 54 were treated at various concentrations. 5 hours later, the cells were scraped off and collected into a 15 mL conical tube and centrifuged at 1500 rpm for 10 minutes. The supernatant was discarded, the resultant was washed with 1× PBS, and transferred to a 1.5 mL e-tube, followed by centrifugation at 10,000 rpm for 5 minutes. The supernatant was discarded again, a lysis buffer was added, and the cells were lysed on ice for 30 minutes. The cells were vortexed every 10 minutes to completely lyse, and centrifuged again at 10,000 rpm for 15 minutes at 4°C, and the supernatant was collected. The protein in the supernatant was quantified using BCA technique, and the sample buffer was added to 20 µg of protein and allowed to react at 70°C for 5 minutes. The expression of PDHE1α S232, S293, S300, and total PDHE1α proteins was detected by Western blot, and the resulting PDH S293 phosphorylation inhibition is shown in Table 6. […]

[2] = qPCR, vs vehicle administration group

CC(C(=O)NNc1ccc(F)cc1)n1cc(-c2cc(F)cc3c2-c2ccccc2C3(O)C(F)(F)F)cn1 (stereo not shown) [Example 1, 2-(4-(2-fluoro-9-hydroxy-9-(trifluoromethyl)-9H-fluoren-4-yl)-1H-pyrazol-1-yl)-N'-(4-fluorophenyl)propanehydrazide]
intracellular calcium (Rhod2 staining) (H9C2 cells; hypoxia-reoxygenation): remarkably reduced | mitochondrial superoxide (MitoSOX staining) (H9C2 cells; hypoxia-reoxygenation): remarkably reduced | apoptosis (TUNEL staining) (H9C2 cells; hypoxia-reoxygenation (H/R)): markedly reduced | longitudinal contraction of colon (C57BL6J JmcSlc mice; 0.5 mg/kg and 1 mg/kg oral daily, vs vehicle, effect increased with dose): alleviated | colonic epithelial cell recovery (H&E staining) (C57BL6J JmcSlc mice; 0.5 mg/kg oral daily, DSS): slight | colonic epithelial cell recovery (H&E staining) (C57BL6J JmcSlc mice; 1 mg/kg oral daily, DSS): remarkable epithelial cell recovery | tissue score (histological score) (C57BL6J JmcSlc mice; 1 mg/kg oral daily, DSS): lowest score | mRNA expression of IFNγ (colon) (C57BL6J JmcSlc mice; [2]): significantly reduced | mRNA expression of IL-4 (colon) (C57BL6J JmcSlc mice; [2]): increased | mRNA expression of IL-6 (colon) (C57BL6J JmcSlc mice; [2]): significantly reduced | mRNA expression of IL-12b (colon) (C57BL6J JmcSlc mice; [2]): significantly reduced | mRNA expression of IL-17a (colon) (C57BL6J JmcSlc mice; [2]): significantly reduced | mRNA expression of TNFα (colon) (C57BL6J JmcSlc mice; [2]): significantly reduced | serum amylase activity (mice): decreased | serum lipase activity (mice): decreased | IL-1β ([1]; 0.01 µM): 1131.823 pg/mL | IL-1β ([1]; 0.1 µM): 1009.825 pg/mL | inhibited IL-1β expression ([1]; 0.1 µM): about 83.802% | IL-1β ([1]; 1 µM): 907.2636 pg/mL | IL-1β ([1]; 10 µM): 647.6982 pg/mL | inhibited IL-1β expression ([1]; 10 µM): about 53.7504% | change in body weight (BALB/c male mice; Daily oral gavage 1 mg/kg, D0): 0 | change in body weight (BALB/c male mice; Daily oral gavage 1 mg/kg, D3): -14.77 | change in body weight (BALB/c male mice; Daily oral gavage 1 mg/kg, D6): -22.95 | change in body weight (BALB/c male mice; Daily oral gavage 1 mg/kg, D9): -19.07 | change in body weight (BALB/c male mice; Daily oral gavage 1 mg/kg, D12): -16.1959 | body weight of the GvHD in vivo model (BALB/c male mice; Daily oral gavage 1 mg/kg): significantly recovered | change in body weight (BALB/c male mice; Initial only: 1 mg/kg oral for 6 days after model induction, D0): 0 | change in body weight (BALB/c male mice; Initial only: 1 mg/kg oral for 6 days after model induction, D3): -11.15 | change in body weight (BALB/c male mice; Initial only: 1 mg/kg oral for 6 days after model induction, D6): -19.01 | change in body weight (BALB/c male mice; Initial only: 1 mg/kg oral for 6 days after model induction, D9): -14.6667 | change in body weight (BALB/c male mice; Initial only: 1 mg/kg oral for 6 days after model induction, D12): -11.99 | body weight of the GvHD in vivo model (BALB/c male mice; Initial only: 1 mg/kg oral for 6 days): significantly recovered | inhibition at 1 µM (PDHE1α S293): ≥ 80%
